Measurements as given in patent US10995186B2, “Light-activated preparation of hydrogels” (Otago Innovation Limited, priority 2015, dated 2021).
Like-named read-outs stand apart in the source and are kept apart here.

Columns and labels:
[1] = test system: Breast adenocarcinoma cells (MCF-7)
Method: A live/dead assay was performed after 1 day to evaluate the viability of encapsulated MCF-7 cells.

[2] = test system: human articular chondrocytes (HAC)
Method: (§1) Articular cartilage biopsies were harvested with ethics approval from a consenting patient. The cartilage was diced into 1 to 2 mm cubes and digested overnight at 37° C. with 0.15% w/v collagenase type II in basic chondrocyte media (DMEM high glucose media supplemented with 10% FCS, 10 mM HEPES, 0.2 mM L-ascorbic acid-2-phosphate, 0.4 mM L-proline and 1% PS). The resulting suspension was filtered through a 100-μm cell strainer (BD Biosciences) to exclude the undigested tissue and centrifuged at 700-g for 4 min. The isolated chondrocytes (HAC) were cultured in basic chondrocyte media and expanded at 37° C. in a humidified 5% CO2/95% air incubator.
(§2) HAC in culture flasks were trypsinised, suspended in basic chondrocyte media, and seeded in 48 well plates at a concentration of 50 HACs/mm^2. The cells were firstly allowed to attach to the surface for 4 hours, then exposed to either 30 mW/cm^2 of UV or visible light (15 minutes), with or without 0.05 wt % of 12959 or 0.2/2 Ru/SPS (mM) respectively. […] After 1 and 7 days, the cells were visualised and quantified using the live/dead assay. […]
(§3) The cells will stain green if alive and red if dead. After staining, the gels were washed with PBS for three times before imaging them using a fluorescence microscope (Zeiss axioimager Z1). The cells were quantified using the ImageJ software and the cell viability was calculated using the equation below:

[3] = test system: human articular chondrocytes (HAC); assay: GAG assay of HAC encapsulated in Gel-MA hydrogels; format: cell-based; conditions: at 21 days
Method: Cell-laden Gel-MA samples were digested overnight in 200 μL of 1 mg/ml proteinase-K solution at 56° C. In order to quantify the amount of GAG retained in the gel, the digested samples were reacted with DMMB. The absorbance of the samples was then measured at 492 nm (Fluostar Galaxy BMG Labtechnology). The GAG concentrations were calculated from a standard curve constructed using known concentrations of CS-A. The amount of DNA in the gels was measured using the CyQUANT kit. The cells in the digested samples were firstly lysed and RNA degraded using the provided lysis buffer with RNase A (1.35 KU/ml) added for 1 hour at RT. GR-dye solution was then added to the samples, incubated at RT for 15 minutes then the fluorescence was measured (Fluostar Galaxy BMG Labtechnology). A standard curve was constructed using the DNA provided in the kit.

[4] = Deformation of thickness (oxygen inhibition) of Gel-MA/collagen hydrogel; format: physicochemical; conditions: Gel-MA+Collagen 1 discs
Method: The constructs were then irradiated for 15 minutes in the presences of a photo-initiator and a light source, where the surfaces of the constructs were exposed to oxygen. In a first experiment, the light intensity was kept at 3 mW/cm^2 whereas the photo-initiator concentrations were varied from 0.05 to 0.5 wt % and 0.2/2 mM to 2/20 mM for 12959 and Ru/SPS respectively. In a second experiment the light intensity was varied from 3 to 100 mW/cm^2 while keeping the photo-initiator concentrations constant at 0.05 wt % and 0.2/2 mM for 12959 and Ru/SPS respectively. The level of oxygen inhibition was characterised as the deformation of thickness before (to) and after equilibrium swelling (ts). The deformation of thickness is given by the equation: Deformation of thickness=[(t0−ts)/t0]×100.

[5] = test system: human articular chondrocytes (HAC); assay: Photo-toxicity and radical toxicity evaluation, HAC on 2D surfaces; conditions: 7 days post treatment, light plus initiator
Method: as §1, §2, §3

[6] = test system: human ovarian adenocarcinoma cell lines (SKOV3)
Method: (§4) Experiments were carried out with human ovarian adenocarcinoma cell lines (SKOV3) and normal human foreskin fibroblasts (HFF). […] Cells were expanded at 37° C. in a humidified 5% CO2/95% air incubator and media was changed twice a week.
(§5) Each cell encapsulated microspheres was then transferred to well in a 96-well polystyrene plate (Falcon). 150 μL of cell culture media was then pipetted into the wells and placed in the incubator and the media was changed twice a week.

[7] = test system: normal human foreskin fibroblasts (HFF); assay: cells; conditions: Fibroblast, 96 h
[8] = test system: normal human foreskin fibroblasts (HFF); conditions: Fibroblast
[9] = test system: co-culture (75% SKOV3 and 25% HFF) cells; assay: cells; conditions: Homo sapiens, 96 h
[10] = test system: co-culture (75% SKOV3 and 25% HFF) cells
[11] = test system: human ovarian adenocarcinoma cell lines (SKOV3); assay: cells; conditions: SK-OV-3, 96 h
Method: as §4, §5

[12] = test system: assembled cancer construct; assay: Darkfield images of doxorubicin-treated cancer construct; format: cell-based, human
Excerpt: To print the assembled construct (n=3) a layer-by-layer approach was opted so as to not limit the height of the scaffold that can be constructed using the system. In this scheme the first layer of the scaffold (8 layers of fibre strands) was printed (as described earlier) and then 4 (2×2 fashion) live microspheres were inserted into the pores of the 3D plotted scaffold. This process was repeated to generate a second layer of the scaffold (4 layers of fibre strands) and then 4 more microspheres were inserted into the scaffold. But for the manually assembled scaffold, the whole scaffold was printed at once and the micro-tissues were inserted manually into pre-printed scaffolds in a similar format to the ones assembled with the automated system.
The cytotoxicity test was used to evaluate in vitro antitumor activity of Doxorubicin on cells in 2D, microspheres and assembled cancer construct. […] On day 1 of forming the microspheres, SKOV3, HFF and co-culture cancer constructs were manually assembled and transferred to a 24-well plate with 1.2 ml of media per well. On day 7, for the cytotoxicity test on 2D model, SKOV3s, HFFs and co-culture (75% SKOV3 and 25% HFF) cells were seeded onto a 48-well plate at 30,000 cells and 200 μl of media per well. […] Media with 5% FBS containing the specific concentration of drug was changed every 2 days. […]

[13] = read-out: IC50 Assembled construct

SMILES: CC(C)(O)C(=O)c1ccc(OCCO)cc1 [UV+I2959, 1-[4-(2-hydroxyethoxy)-phenyl]-2-hydroxy-2-methyl-1-propane-1-one]
- cell viability [1]: 50%
- number of cells attached [2]: 20 HACs/mm^2
- GAG/gel [3]: 0.1 µg/mg
- reduction of thickness (deformation of thickness) ([4]; 3 mW/cm^2, 0.05 wt % I2959 or 0.2/2 Ru/SPS (mM)): ~55%
- deformation of thickness ([4]; 3 mW/cm^2, 0.5 wt % I2959 or 2/20 Ru/SPS (mM), controls without oxygen <10%): comparable to the controls
- cell morphology (live-dead stain) [5]: the cells became rounded

SMILES: COc1cccc2c1C(=O)c1c(O)c3c(c(O)c1C2=O)C[C@@](O)(C(=O)CO)C[C@@H]3O[C@H]1C[C@H](N)[C@H](O)[C@H](C)O1 [doxorubicin, Doxorubicin]
- Fold change in IC50 Assembled construct/microspheres [6]: 16.33
- Fold change in IC50 Assembled construct/monolayer [6]: 48.32
- Fold change in IC50 Microspheres/monolayer [6]: 2.96
- IC50 ([7]; read-out: IC50 2D): 0.16 µM
- IC50 [7, 13]: 3.81 µM
- IC50 ([7]; read-out: IC50 Microspheres): 0.18 µM
- Fold change in IC50 Assembled construct/microspheres [8]: 21.41
- Fold change in IC50 Assembled construct/monolayer [8]: 24.32
- Fold change in IC50 Microspheres/monolayer [8]: 1.14
- IC50 ([9]; read-out: IC50 2D): 0.08 µM
- IC50 [9, 13]: 5.56 µM
- IC50 ([9]; read-out: IC50 Microspheres): 0.29 µM
- Fold change in IC50 Assembled construct/microspheres [10]: 19.34
- Fold change in IC50 Assembled construct/monolayer [10]: 70.14
- Fold change in IC50 Microspheres/monolayer [10]: 3.63
- IC50 ([11]; read-out: IC50 2D): 0.05 µM
- IC50 [11, 13]: 2.41 µM
- IC50 ([11]; read-out: IC50 Microspheres): 0.15 µM
- tissue present in cancer construct (darkfield images) ([12]; 1 μM drug): atrophy of the tissue
- tissue present in cancer construct (darkfield images) ([12]; 10 μM drug): almost no tissue present
